# In patent US3984563A, “Antiinflammatory 2-imino-indolines and their pharmaceutical compositions” (Gruppo Lepetit S.p.A., priority 1973, dated 1976):
# Counter-ions that a name gives are not always drawn. Like-named read-outs stand apart in the source and are kept apart here.
# Columns and labels:
# [1] = LD50 p.o. in rats (acute toxicity); conditions: rat, in vivo, po
# carrageenin edema = carrageenin edema test in rats (antiinflammatory activity); type: in vivo; conditions: Rattus norvegicus, po, read-out: % Decrease of the edema; for inhibition in vivo at 50 mg/kg: dose 50 mg/kg p.o. in rats; for inhibition in vivo at 200 mg/kg: dose 200 mg/kg p.o. in rats; for inhibition in vivo at 100 mg/kg: dose 100 mg/kg p.o. in rats
# Excerpt: The anti-inflamatory activity of the indole derivatives is evidenced by means of the carrageenin edema test in rats. In representative experiments compounds of formula I provoked a substantial decrease of the induced edema at dosage levels from about one fifth to about one tenth of their respective LD50 values. The following table reports the results of the experiments:
# The following table reports the percent inhibitory effect of some representative compounds of the formula II in the carrageenin edema test.
# [2] = test system: pain threshold of inflammed foot of the rat; test: analgesic effect on pain threshold of inflamed foot of the rat (Randall and Selitto); type: in vivo; conditions: vs acetylsalicylic acid
# [3] = compounds of the examples (formula I)
SMILES,LD50 ([1]; hydrazines of formula II) [mg/kg],inhibition in vivo at 50 mg/kg (carrageenin edema; hydrazines of formula II) [%],"LD50 [1, 3] [mg/kg]",further results
COc1ccc(N(C)NC(=O)C(C)C)cc1 [1-(p-Methoxyphenyl)-1-methyl-2-isobutyrylhydrazine],500,30,–,–
CN(NC(=O)CCCN1C(=O)c2ccccc2C1=O)c1ccccc1 [1-Phenyl-1-methyl-1-( -phthalimido-butyryl)-hydrazine],> 1000,–,–,inhibition in vivo at 200 mg/kg (carrageenin edema; hydrazines of formula II): 28%
CCC(C)C(=O)NN(C)c1ccccc1 (stereo not drawn) [1-Phenyl-1-methyl-2-(2-methylbutyryl)-hydrazine],> 1000,–,–,inhibition in vivo at 100 mg/kg (carrageenin edema; hydrazines of formula II): 40%
CC(=O)NN(C)c1ccccc1 [1-Phenyl-1-methyl-2-acetylhydrazine],500,57,–,–
CN(NC(=O)C1CCCCC1)c1ccccc1 [1-Phenyl-1-methyl-2-cyclohexanoyl hydrazine],500,37,–,–
CN(NC(=O)C1CCCC1)c1ccccc1 [1-Phenyl-1-methyl-2-cyclopentanoylhydrazine],500,37,–,–
CN(NC(=O)C1CC1)c1ccccc1 [1-Phenyl-1-methyl-2-cyclopropanoylhydrazine],500,35,–,–
CC(C)C(=O)NN(C)c1ccccc1 [1-Phenyl-1-methyl-2-isobutyrylhydrazine],500,36,–,–
CCC(=O)NN(C)c1ccccc1 [1-Phenyl-1-methyl-2-propionylhydrazine],500,30,–,–
"COc1cccc(-c2c(N)n(C)c3ccccc23)c1 [Example 9, 2-amino-3-(m-anisyl)-1-methylindole hydrochloride]",–,–,> 1000,inhibition in vivo at 100 mg/kg (carrageenin edema; [3]): 30%; inhibition in vivo at 200 mg/kg (carrageenin edema; [3]): 41%
"CN1C(=N)C2(CCCCC2)c2ccccc21 [Example 13, 2'-imino-1'-methyl-spyro(cyclohexane-1,3'-indoline)hydrochloride]",–,–,100,"inhibition in vivo at 8 mg/kg (carrageenin edema; compounds of the examples (formula I), dose 8 mg/kg p.o. in rats): 45%; inhibition in vivo at 20 mg/kg (carrageenin edema; compounds of the examples (formula I), dose 20 mg/kg p.o. in rats): 60%; analgesic activity relative to acetylsalicylic acid (times as active) [2]: about 25 times"
"CN1C(=NC(=O)c2ccccc2)C(C)(C)c2ccccc21 [Example 28, 2-Benzoylimino-1,3,3-trimethylindoline]",–,–,> 1000,inhibition in vivo at 100 mg/kg (carrageenin edema; [3]): 35%; inhibition in vivo at 200 mg/kg (carrageenin edema; [3]): 45%
"Cn1c(NC(=O)Nc2ccccc2)c(-c2ccc(Cl)cc2)c2ccccc21 [Example 34, 3-(p-Chlorophenyl)-1-methyl-2-phenylureidoindole]",–,–,> 1000,inhibition in vivo at 200 mg/kg (carrageenin edema; [3]): 33%
